Consider twelve molecules from patent US8816084B1, “Crystals of morphinan derivative, manufacturing method thereof, and pharmaceutical composition using the same” (priority 2013, dated 2014).

One data set in a line: pH Stability Test. Type of data set: physicochemical. As to conditions: 100 mg solid dissolved in 10 ml deionized water, pH meter; hydrochloride. The procedure: First, 100 mg of the X-form crystal solid of Examples 1 to 3, and the amorphous solid of Comparative Examples 1-6 were dissolved in 10 ml of deionized water respectively. Then, pH value of the resulting solutions was measured with a pH meter (Type No: Mettler Toledo MP 250). The measurement results are shown in Table 3, wherein the result of the amorphous and A-form crystals of Comparative Examples 4-9 was quoted from U.S. Pat. No. 7,803,942B2.
In turn, `CN(C(=O)/C=C/c1ccoc1)[C@@H]1CC[C@@]2(O)[C@H]3Cc4ccc(O)c5c4[C@@]2(CCN3CC2CC2)[C@H]1O5.Cl` (relative stereo) [Comparative Example 3, 17-cyclopropylmethyl-3,14β-dihydroxy-4,5α-epoxy-6β-[N-methyl-trans-3-(3-furyl)acrylamido]morphinan hydrochloride] had a pH of 3.7.

`CN(C(=O)/C=C/c1ccoc1)[C@@H]1CC[C@@]2(O)[C@H]3Cc4ccc(O)c5c4[C@@]2(CCN3CC2CC2)[C@H]1O5.Cl` (relative stereo) [Comparative Example 2, 17-cyclopropylmethyl-3,14β-dihydroxy-4,5α-epoxy-6β-[N-methyl-trans-3-(3-furyl)acrylamido]morphinan hydrochloride] came in with a pH of 2.6.

Turning to `CN(C(=O)/C=C/c1ccoc1)[C@@H]1CC[C@@]2(O)[C@H]3Cc4ccc(O)c5c4[C@@]2(CCN3CC2CC2)[C@H]1O5.Cl` (relative stereo) [Example 1, 17-cyclopropylmethyl-3,14β-dihydroxy-4,5α-epoxy-6β-[N-methyl-trans-3-(3-furyl)acrylamido]morphinan hydrochloride], the pH is reported as 3.5.

Molecule `CN(C(=O)/C=C/c1ccoc1)[C@@H]1CC[C@@]2(O)[C@H]3Cc4ccc(O)c5c4[C@@]2(CCN3CC2CC2)[C@H]1O5.Cl` (relative stereo) [Example 3, 17-cyclopropylmethyl-3,14β-dihydroxy-4,5α-epoxy-6β-[N-methyl-trans-3-(3-furyl)acrylamido]morphinan hydrochloride] registered a pH of 3.6.

Molecule `CN(C(=O)/C=C/c1ccoc1)[C@@H]1CC[C@@]2(O)[C@H]3Cc4ccc(O)c5c4[C@@]2(CCN3CC2CC2)[C@H]1O5.Cl` (relative stereo) [Comparative Example 1, 17-cyclopropylmethyl-3,14β-dihydroxy-4,5α-epoxy-6β-[N-methyl-trans-3-(3-furyl)acrylamido]morphinan hydrochloride] came in with a pH of 4.4.

With `CN(C(=O)/C=C/c1ccoc1)[C@@H]1CC[C@@]2(O)[C@H]3Cc4ccc(O)c5c4[C@@]2(CCN3CC2CC2)[C@H]1O5.Cl` (relative stereo) [Example 2, 17-cyclopropylmethyl-3,14β-dihydroxy-4,5α-epoxy-6β-[N-methyl-trans-3-(3-furyl)acrylamido]morphinan hydrochloride], the pH worked out at 3.6.

Assay in another data set: not given
The note with it: result quoted from U.S. Pat. No. 7,803,942B2; hydrochloride; cited from earlier work.
In the case of `CN(C(=O)/C=C/c1ccoc1)[C@@H]1CC[C@@]2(O)[C@H]3Cc4ccc(O)c5c4[C@@]2(CCN3CC2CC2)[C@H]1O5.Cl` (relative stereo) [Comparative Example 5, 17-cyclopropylmethyl-3,14β-dihydroxy-4,5α-epoxy-6β-[N-methyl-trans-3-(3-furyl)acrylamido]morphinan hydrochloride], the pH is reported as 4.7.

For the molecule `CN(C(=O)/C=C/c1ccoc1)[C@@H]1CC[C@@]2(O)[C@H]3Cc4ccc(O)c5c4[C@@]2(CCN3CC2CC2)[C@H]1O5.Cl` (relative stereo) [Comparative Example 7, 17-cyclopropylmethyl-3,14β-dihydroxy-4,5α-epoxy-6β-[N-methyl-trans-3-(3-furyl)acrylamido]morphinan hydrochloride], the pH is listed as 5.8.

As for `CN(C(=O)/C=C/c1ccoc1)[C@@H]1CC[C@@]2(O)[C@H]3Cc4ccc(O)c5c4[C@@]2(CCN3CC2CC2)[C@H]1O5.Cl` (relative stereo) [Comparative Example 4, 17-cyclopropylmethyl-3,14β-dihydroxy-4,5α-epoxy-6β-[N-methyl-trans-3-(3-furyl)acrylamido]morphinan hydrochloride], the pH is 3.7.

As to `CN(C(=O)/C=C/c1ccoc1)[C@@H]1CC[C@@]2(O)[C@H]3Cc4ccc(O)c5c4[C@@]2(CCN3CC2CC2)[C@H]1O5.Cl` (relative stereo) [Comparative Example 8, 17-cyclopropylmethyl-3,14β-dihydroxy-4,5α-epoxy-6β-[N-methyl-trans-3-(3-furyl)acrylamido]morphinan hydrochloride], the pH is listed as 5.4.

As to `CN(C(=O)/C=C/c1ccoc1)[C@@H]1CC[C@@]2(O)[C@H]3Cc4ccc(O)c5c4[C@@]2(CCN3CC2CC2)[C@H]1O5.Cl` (relative stereo) [Comparative Example 6, 17-cyclopropylmethyl-3,14β-dihydroxy-4,5α-epoxy-6β-[N-methyl-trans-3-(3-furyl)acrylamido]morphinan hydrochloride], the pH is 3.5.

In the case of `CN(C(=O)/C=C/c1ccoc1)[C@@H]1CC[C@@]2(O)[C@H]3Cc4ccc(O)c5c4[C@@]2(CCN3CC2CC2)[C@H]1O5.Cl` (relative stereo) [Comparative Example 9, 17-cyclopropylmethyl-3,14β-dihydroxy-4,5α-epoxy-6β-[N-methyl-trans-3-(3-furyl)acrylamido]morphinan hydrochloride], the pH is on record as 5.6.
